Source: patent US10124004B2, “Pyrido[3,4-d]pyrimidine derivative and pharmaceutically acceptable salt thereof” (Teijin Pharma Limited, priority 2015, dated 2018)

Key:
CDK4/cyclin D3 = biological target: T1, CDK4/cyclin D3 (Homo sapiens, UniProt P11802); experiment: Human CDK4/cyclin D3 inhibitory activity (QS S Assist CDK4/Cyclin D3_FP Kit, IMAP fluorescence polarization); type: biochemical; conditions: Human CDK4/cyclin D3 inhibitory activity; read-out: CDK4 Activity symbol
T1 construct: purchased Carna Biosciences, Inc. QS S Assist CDK4/Cyclin D3_FP Kit
Procedure, shortened: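 IMAP fluorescence polarization kit: CDK4/cyclin D3 at 12.5-25 ng/well with kit ATP/substrate/metal mix in 20 mM HEPES pH 7.4, 0.01% Tween20, 2 mM DTT, 45 min at room temperature. FP read at 485/535 nm after 30 min binding; IC50 from dose-response fit of percent inhibition versus enzyme and no-enzyme controls.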

CDK2/cyclin A2 = biological target: T2, CDK2/cyclin A2 (Homo sapiens, UniProt P24941); experiment: Human CDK2/cyclin A2 inhibitory activity (QS S Assist CDK2/Cyclin A2_FP Kit, IMAP fluorescence polarization); type: biochemical; conditions: Human CDK2/cyclin A2 inhibitory activity; read-out: CDK2 Activity symbol
T2 construct: purchased Carna Biosciences, Inc. QS S Assist CDK2/Cyclin A2_FP Kit
Procedure, shortened: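 Kinase activity read as fluorescence polarization (485/535 nm) after phosphorylated fluorescent substrate binds IMAP reagent (30 min, RT, dark). Enzyme (2.5 ng/well) reacted 60 min at RT with ATP/substrate/metal in HEPES pH 7.4 buffer with Tween 20 and DTT; no-enzyme wells define 0% activity; IC50 by curve fit.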

T1 sequence (P11802 whole entry): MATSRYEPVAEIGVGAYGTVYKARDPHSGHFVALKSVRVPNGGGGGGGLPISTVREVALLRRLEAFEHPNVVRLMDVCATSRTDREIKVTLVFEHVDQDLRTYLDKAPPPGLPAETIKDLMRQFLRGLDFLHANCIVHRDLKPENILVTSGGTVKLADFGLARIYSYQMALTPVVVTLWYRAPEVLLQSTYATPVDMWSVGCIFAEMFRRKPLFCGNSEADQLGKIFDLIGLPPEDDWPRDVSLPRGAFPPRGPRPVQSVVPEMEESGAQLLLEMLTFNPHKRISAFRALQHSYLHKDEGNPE
T1 sequence (P30281 whole entry partner): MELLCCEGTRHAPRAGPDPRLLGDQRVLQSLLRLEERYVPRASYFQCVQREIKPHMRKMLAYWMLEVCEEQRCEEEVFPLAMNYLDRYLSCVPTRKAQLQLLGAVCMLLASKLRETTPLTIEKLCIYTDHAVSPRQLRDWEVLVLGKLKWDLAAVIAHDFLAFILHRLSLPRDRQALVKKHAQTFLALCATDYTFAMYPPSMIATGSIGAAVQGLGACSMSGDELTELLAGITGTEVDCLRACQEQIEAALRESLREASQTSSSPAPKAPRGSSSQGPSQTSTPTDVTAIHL

In the case of `CC(C)Nc1nc(C(F)F)cc2cnc(Nc3ccc(C4=CC(=O)NCC4)cn3)nc12` [Compound 203], the IC50 (CDK4/cyclin D3) is reported as < 10 nM and the IC50 (CDK2/cyclin A2) is reported as 10 to 100 nM.
`COCC(C)(C)Nc1nc([C@@H](C)O)cc2cnc(Nc3ccc(N4CCOCC4)cn3)nc12` [Compound 204] was tested, and the IC50 (CDK4/cyclin D3) was < 10 nM and the IC50 (CDK2/cyclin A2) was ≥ 100 nM.
`CC(C)Nc1nc(C(F)F)cc2cnc(Nc3ccc(CN4CCNCC4=O)cn3)nc12` [Compound 205] was tested, and the IC50 (CDK4/cyclin D3) was < 10 nM and the IC50 (CDK2/cyclin A2) was 10 to 100 nM.
With `COCC(C)(C)Nc1nc([C@@H](C)O)cc2cnc(Nc3ccc(N4CCNCC4=O)cn3)nc12` [Compound 206] the IC50 (CDK4/cyclin D3) was < 10 nM and the IC50 (CDK2/cyclin A2) was ≥ 100 nM.
For `CO[C@H](C)c1cc2cnc(Nc3ccc(N4CCNCC4=O)cn3)nc2c(NC(C)C)n1` [Compound 207], the IC50 (CDK4/cyclin D3) was < 10 nM and the IC50 (CDK2/cyclin A2) was ≥ 100 nM.
In the case of `COCC(C)(C)Nc1nc([C@@H](C)O)cc2cnc(Nc3ccc(OCCN(C)C)cn3)nc12` [Compound 208], the IC50 (CDK4/cyclin D3) is reported as < 10 nM and the IC50 (CDK2/cyclin A2) is reported as ≥ 100 nM.
With `CC(C)Nc1nc(C(F)F)cc2cnc(Nc3ccc(-c4cn[nH]c4)cn3)nc12` [Compound 209] the IC50 (CDK4/cyclin D3) was 10 to 100 nM and the IC50 (CDK2/cyclin A2) was ≥ 100 nM.
In the case of `CC(C)Nc1nc(C(F)F)cc2cnc(Nc3ccc(-n4cccn4)cn3)nc12` [Compound 210], the IC50 (CDK4/cyclin D3) is reported as 10 to 100 nM and the IC50 (CDK2/cyclin A2) is reported as ≥ 100 nM.
Work on `CC(C)Nc1nc(C(F)F)cc2cnc(Nc3ccc(-n4cnnn4)cn3)nc12` [Compound 211] yielded an IC50 (CDK4/cyclin D3) of 10 to 100 nM and an IC50 (CDK2/cyclin A2) of 10 to 100 nM.
With `COCC(C)(C)Nc1nc([C@@H](C)O)cc2cnc(Nc3ccc(N4CCNCC4)nn3)nc12` [Compound 212] the IC50 (CDK4/cyclin D3) was < 10 nM and the IC50 (CDK2/cyclin A2) was ≥ 100 nM.
For `CC(C)Nc1nc(C(F)F)cc2cnc(Nc3ccc(CN4CCNC4=O)cn3)nc12` [Compound 213], the IC50 (CDK4/cyclin D3) was < 10 nM and the IC50 (CDK2/cyclin A2) was 10 to 100 nM.
With `CO[C@H](C)c1cc2cnc(Nc3ccc(N4CCOCC4)cn3)nc2c(NC(C)C)n1` [Compound 214] the IC50 (CDK4/cyclin D3) was < 10 nM and the IC50 (CDK2/cyclin A2) was ≥ 100 nM.
For `COCC(C)(C)Nc1nc([C@@H](C)O)cc2cnc(Nc3ccc(C4CCNCC4)cn3)nc12` [Compound 215], the IC50 (CDK4/cyclin D3) was < 10 nM and the IC50 (CDK2/cyclin A2) was ≥ 100 nM.
In the case of `COCC(C)(C)Nc1nc([C@@H](C)O)cc2cnc(Nc3ccc(N4CCOCC4)nn3)nc12` [Compound 216], the IC50 (CDK4/cyclin D3) is reported as 10 to 100 nM and the IC50 (CDK2/cyclin A2) is reported as ≥ 100 nM.
`CC(C)Nc1nc(C(F)F)cc2cnc(Nc3ccc(C4CCNC(=O)C4)cn3)nc12` (stereo not shown) [Compound 218] was tested, and the IC50 (CDK4/cyclin D3) was < 10 nM and the IC50 (CDK2/cyclin A2) was 10 to 100 nM.
With `CC(C)Nc1nc(C(F)F)cc2cnc(Nc3ccc(CN4CCCNC4=O)cn3)nc12` [Compound 219] the IC50 (CDK4/cyclin D3) was < 10 nM and the IC50 (CDK2/cyclin A2) was 10 to 100 nM.
For `COCC(C)(C)Nc1nc([C@@H](C)O)cc2cnc(Nc3ccc(CC(N)=O)cn3)nc12` [Compound 222], the IC50 (CDK4/cyclin D3) was 10 to 100 nM and the IC50 (CDK2/cyclin A2) was ≥ 100 nM.
`CO[C@H](C)c1cc2cnc(Nc3ccc(CCO)cn3)nc2c(NC(C)C)n1` [Compound 223] was tested, and the IC50 (CDK4/cyclin D3) was < 10 nM and the IC50 (CDK2/cyclin A2) was ≥ 100 nM.
`CO[C@H](C)c1cc2cnc(Nc3ccc(C4CCN(C(C)=O)CC4)cn3)nc2c(NC(C)C)n1` [Compound 224] was tested, and the IC50 (CDK4/cyclin D3) was < 10 nM and the IC50 (CDK2/cyclin A2) was ≥ 100 nM.
With `COCC(C)(C)Nc1nc([C@@H](C)O)cc2cnc(Nc3ccc(C4CCN(C(C)=O)CC4)cn3)nc12` [Compound 225] the IC50 (CDK4/cyclin D3) was < 10 nM and the IC50 (CDK2/cyclin A2) was ≥ 100 nM.
For `CC(C)Nc1nc(C(F)F)cc2cnc(Nc3ccc(N4CCCC(O)C4)nn3)nc12` (stereo not shown) [Compound 226], the IC50 (CDK4/cyclin D3) was < 10 nM and the IC50 (CDK2/cyclin A2) was 10 to 100 nM.
With `CO[C@H](C)c1cc2cnc(Nc3ccc(OCCN(C)C)cn3)nc2c(NC(C)C)n1` [Compound 227] the IC50 (CDK4/cyclin D3) was < 10 nM and the IC50 (CDK2/cyclin A2) was ≥ 100 nM.
`COCC(C)(C)Nc1nc([C@@H](C)O)cc2cnc(Nc3ccc(CCO)cn3)nc12` [Compound 228] was tested, and the IC50 (CDK4/cyclin D3) was 10 to 100 nM and the IC50 (CDK2/cyclin A2) was ≥ 100 nM.
For `CC(C)Nc1nc([C@@H](C)O)cc2cnc(Nc3ccc(CCCN4CCOCC4=O)cn3)nc12` [Compound 229], the IC50 (CDK4/cyclin D3) was < 10 nM and the IC50 (CDK2/cyclin A2) was ≥ 100 nM.
With `CO[C@H](C)c1cc2cnc(Nc3ccc(CC(N)=O)cn3)nc2c(NC(C)C)n1` [Compound 231] the IC50 (CDK4/cyclin D3) was 10 to 100 nM and the IC50 (CDK2/cyclin A2) was ≥ 100 nM.
`CO[C@H](C)c1cc2cnc(Nc3ccc(C4CCNCC4)cn3)nc2c(NC(C)C)n1` [Compound 232] was tested, and the IC50 (CDK4/cyclin D3) was < 10 nM and the IC50 (CDK2/cyclin A2) was ≥ 100 nM.
